In brackets after ≈: the same amount, converted by molar mass.
Assays:
MRC5 [1] = assay: (§1) Compound was tested for cytotoxicity by measuring inhibition of MRC-5 cell proliferation.; type: functional, cell-based; conditions: Homo sapiens
WI-38 [2] = assay: Compound was tested for antiviral activity against WI-38 cell line using a plaque reduction assay; 10-50; type: functional; conditions: Homo sapiens
WI-38 [3] = assay: Compound was tested for antiviral activity against WI-38 cell line using a plaque reduction assay; 0.5-1; type: functional, cell-based; conditions: Homo sapiens
MRC5 [4] = assay: as §1; type: functional; conditions: Homo sapiens
WI-38 [5] = assay: (§2) Compound was tested for antiviral activity against WI-38 cell line using a plaque reduction assay; type: functional; conditions: Homo sapiens
WI-38 [6] = assay: as §2; type: functional, cell-based; conditions: Homo sapiens
WI-38 [7] = assay: Compound was tested for antiviral activity against WI-38 cell line using a plaque reduction assay; 10-100; type: functional; conditions: Homo sapiens
WI-38 [8] = assay: Compound was tested for antiviral activity against WI-38 cell line using a plaque reduction assay; 0.1-1; type: functional, cell-based; conditions: Homo sapiens
Human betaherpesvirus 5 [9] = assay: Compound was tested for cytotoxicity against human cytomegalovirus (HCMV).; type: functional
Human betaherpesvirus 5 [10] = assay: Compound was tested for antiviral activity against human cytomegalovirus (HCMV).; type: functional, organism-based

| Compound | IC50 (MRC5 [1]) [µg/mL] | CC50 (MRC5 [4]) [µg/mL] | CC50 (WI-38 [5]) [µg/mL] | IC50 (WI-38 [6]) [µg/mL] | other results |
| --- | --- | --- | --- | --- | --- |
| Nc1nc(O)c2ncn(C[C@@H]3CC[C@H](P(=O)(O)O)O3)c2n1 | 1.6 (≈ 5.08 µM) | > 10 |  |  | CC50 (WI-38 [2]): 10 µg/mL (≈ 31.7 µM); IC50 (WI-38 [3]): 0.5 µg/mL (≈ 1.59 µM) |
| Nc1ncc2ncn(C[C@@H]3CC[C@H](P(=O)(O)O)O3)c2n1 |  |  | > 100 | 100 (≈ 334 µM) |  |
| Nc1nc(O)c2ncn(C[C@H]3CC[C@@H](P(=O)(O)O)O3)c2n1 |  |  | 100 (≈ 317 µM) | > 10 |  |
| Nc1nc(N)c2ncn(C[C@@H]3CC[C@H](P(=O)(O)O)O3)c2n1 |  |  | > 100 | > 50 |  |
| Nc1nc(O)c2ncn(C[C@H]3CC[C@H](P(=O)(O)O)O3)c2n1 |  |  | > 100 | > 10 |  |
| Nc1nc(N)c2ncn(C[C@H]3CC[C@H](P(=O)(O)O)O3)c2n1 |  |  | > 100 | > 50 |  |
| Nc1nc(N)c2ncn(C[C@@H]3CC[C@@H](P(=O)(O)O)O3)c2n1 |  |  | > 100 | 50 (≈ 159 µM) |  |
| Nc1nc(O)c2ncn(C[C@@H]3CC[C@@H](P(=O)(O)O)O3)c2n1 | 0.11 (≈ 0.349 µM) | 28 (≈ 88.8 µM) |  |  | CC50 (WI-38 [7]): 10 µg/mL (≈ 31.7 µM); IC50 (WI-38 [8]): 0.1 µg/mL (≈ 0.317 µM) |
| Nc1nc(N)c2ncn(C[C@H]3CC[C@@H](P(=O)(O)O)O3)c2n1 |  |  | > 100 | > 50 |  |
| Nc1nc(O)c2ncn(C[C@@H]3CO[C@H](P(=O)(O)O)O3)c2n1 |  |  |  |  | CC50 (Human betaherpesvirus 5 [9]): > 100 µg/mL; IC50 (Human betaherpesvirus 5 [10]): 45 µg/mL (≈ 142 µM) |
| Nc1ccn(C[C@@H](CO)OCP(=O)(O)O)c(=O)n1.O.O [CIDOFOVIR] | 0.04 | 19 |  |  | CC50 (WI-38 [2]): 10 µg/mL; IC50 (WI-38 [8]): 0.1 µg/mL |
| Nc1nc2c(ncn2COC(CO)CO)c(=O)[nH]1 [GANCICLOVIR] | 2.1 (≈ 8.23 µM) | > 100 |  |  |  |

Reference: ChEMBL document CHEMBL1130711, “Identification of novel nucleotide phosphonate analogs with potent anti-HCMV activity” (Bioorg Med Chem Lett, 1998)
